Like-named read-outs stand apart in the source and are kept apart here. Where a SMILES comes first, the peptide text is derived from it. Bridges are numbered along the chain shown (N, C = ends). [ ]: non-standard residue; d: D form. The star is where a group is joined. hPhe(3,5-F2-4-CF3) = N[C@@H](CCc1cc(F)c(C(F)(F)F)c(F)c1)C(=O)O; hPhe(3-Cl-4-CF3) = N[C@@H](CCc1ccc(C(F)(F)F)c(Cl)c1)C(=O)O; NPrPhe(4-CF3) = CCCN[C@@H](Cc1ccc(C(F)(F)F)cc1)C(=O)O; NMeGly(cPent) = CN[C@H](C(=O)O)C1CCCC1; Hyp = O=C(O)[C@@H]1C[C@@H](O)CN1; NMeD = CN[C@@H](CC(=O)O)C(=O)O; NMeL = CN[C@@H](CC(C)C)C(=O)O; αMeL = CC(C)C[C@](C)(N)C(=O)O; Morpholide = C1CN(*)CCO1; Aze = O=C(O)[C@@H]1CCN1; Ac4c = NC1(C(=O)O)CCC1; NEtG = CCNCC(=O)O; Sar = CNCC(=O)O
What was measured:
[1] = biological target: GDP-bound NRAS wild-type protein (Homo sapiens, UniProt P01111); test: Binding to NRAS by surface plasmon resonance (SPR), Single Cycle Kinetics; settings: SPR, GDP-bound NRAS wild-type protein vs GDP-bound KRAS wild-type protein
GDP-bound NRAS wild-type protein, sequence (P01111 whole entry): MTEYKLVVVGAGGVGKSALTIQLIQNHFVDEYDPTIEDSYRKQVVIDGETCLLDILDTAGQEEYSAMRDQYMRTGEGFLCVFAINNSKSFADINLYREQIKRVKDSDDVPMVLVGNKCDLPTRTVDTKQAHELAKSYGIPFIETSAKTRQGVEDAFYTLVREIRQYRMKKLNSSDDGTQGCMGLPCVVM

[2] = biological target: GDP-bound HRAS wild-type protein (Homo sapiens, UniProt P01112); test: Binding to HRAS by surface plasmon resonance (SPR), Single Cycle Kinetics; settings: SPR, GDP-bound HRAS wild-type protein vs GDP-bound KRAS wild-type protein
GDP-bound HRAS wild-type protein, sequence (P01112 whole entry): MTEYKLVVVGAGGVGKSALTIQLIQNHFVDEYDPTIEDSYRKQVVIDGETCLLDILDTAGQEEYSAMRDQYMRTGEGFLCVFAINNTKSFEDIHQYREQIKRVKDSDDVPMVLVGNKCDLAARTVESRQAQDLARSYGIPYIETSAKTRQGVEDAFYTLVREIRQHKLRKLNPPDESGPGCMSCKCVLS

[3] = biological target: GDP-bound KRAS wild-type protein (Homo sapiens, UniProt P01116); test: Binding to KRAS by surface plasmon resonance (SPR), Single Cycle Kinetics; settings: GDP-bound KRAS wild-type protein, read-out: KRAS KD
GDP-bound KRAS wild-type protein, sequence (P01116 whole entry): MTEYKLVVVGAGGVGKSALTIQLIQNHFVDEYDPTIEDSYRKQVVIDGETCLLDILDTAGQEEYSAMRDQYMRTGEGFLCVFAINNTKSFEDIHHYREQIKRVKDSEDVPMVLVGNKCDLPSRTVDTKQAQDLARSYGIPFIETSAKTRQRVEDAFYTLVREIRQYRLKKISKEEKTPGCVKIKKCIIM

[4] = SPR Single Cycle Kinetics, 1:1 binding model

Row | SMILES | Kd ([3]; SPR, Single Cycle Kinetics) | Kd [3, 4] | NRAS/KRAS (ratio of KD value for NRAS to KD value for KRAS) [1] | HRAS/KRAS (ratio of KD value for HRAS to KD value for KRAS) [2] | NRAS/KRAS (ratio of KD value with respect to NRAS to KD value with respect to KRAS) [1] | HRAS/KRAS (ratio of KD value with respect to HRAS to KD value with respect to KRAS) [2]
1 | CC[C@H](C)[C@@H]1NC(=O)[C@H](CC(C)C)N(C)C(=O)C[C@@H](C(=O)N2CCCC2)N(C)C(=O)[C@H](C2CCCC2)N(C)C(=O)C2(CCCC2)NC(=O)[C@@H]2CCCN2C(=O)[C@H](CCc2cc(F)c(C(F)(F)F)c(F)c2)NC(=O)CN(C)C(=O)[C@H](Cc2ccc(C(F)(F)F)cc2)N2CCCC[C@@H](C2=O)N(C)C(=O)CN(C)C1=O [PP0571] |  | 0.05 nM |  |  | B (a compound having 3 or more and less than 10 is denoted as B) | B (a compound having 3 or more and less than 10 is denoted as B)
2 | CCCN1C(=O)CN(C)C(=O)CN(CC)C(=O)[C@H]([C@@H](C)CC)NC(=O)[C@H](CC(C)C)N(C)C(=O)C[C@@H](C(=O)N2CCOCC2)NC(=O)[C@H](C2CCCC2)N(C)C(=O)C2(CCC2)NC(=O)[C@@H]2C[C@@H](OCC)CN2C(=O)[C@H](CCc2ccc(C(F)(F)F)c(Cl)c2)NC(=O)CN(C)C(=O)[C@@H]1Cc1ccc(C(F)(F)F)cc1 [PP0336] ([NMeL]I[NEtG][Sar][NPrPhe(4-CF3)][Sar][hPhe(3-Cl-4-CF3)][Hyp](Et)[Ac4c][NMeGly(cPent)]D-Morpholide; lactam N-11) |  | 1.6 nM | B (a compound having 3 or more and less than 10 is denoted as B) | B (a compound having 3 or more and less than 10 is denoted as B) |  | 
3 | CCCN1C(=O)[C@@H]2CCN2C(=O)CN(C)C(=O)[C@H]([C@@H](C)CC)NC(=O)[C@H](CC(C)C)N(C)C(=O)C[C@@H](C(=O)N2CCOCC2)N(C)C(=O)[C@H](C2CCCC2)N(C)C(=O)[C@](C)(CC(C)C)NC(=O)[C@@H]2CCCN2C(=O)[C@H](CCc2cc(F)c(C(F)(F)F)c(F)c2)NC(=O)CN(C)C(=O)[C@@H]1Cc1ccc(C(F)(F)F)cc1 [PP0795] ([NMeL]I[Sar][Aze][NPrPhe(4-CF3)][Sar][hPhe(3,5-F2-4-CF3)]P[αMeL][NMeGly(cPent)][NMeD]-Morpholide; lactam N-11) |  | 2.5 nM |  |  | C (A compound having a KD ratio of 0.1 or more and less than 3 is denoted as C) | B (a compound having 3 or more and less than 10 is denoted as B)
4 | CC[C@H](C)[C@@H]1NC(=O)[C@H](CC(C)C)N(C)C(=O)C[C@@H](C(=O)N(C)C)N(C)C(=O)[C@H](C2CCCC2)N(C)C(=O)C2(CCC2)NC(=O)[C@@H]2CCCN2C(=O)[C@H](CCc2cc(F)c(C(F)(F)F)c(F)c2)NC(=O)CN(C)C(=O)[C@H](Cc2ccc(C(F)(F)F)cc2)N2CCCC[C@@H](C2=O)N(C)C(=O)CN(C)C1=O [PP0574] |  | 0.026 nM |  |  | C (A compound having a KD ratio of 0.1 or more and less than 3 is denoted as C) | B (a compound having 3 or more and less than 10 is denoted as B)

Continued, in another order:

Row | Kd ([3]; SPR, Single Cycle Kinetics) | Kd [3, 4] | SMILES | NRAS/KRAS (ratio of KD value for NRAS to KD value for KRAS) [1] | HRAS/KRAS (ratio of KD value for HRAS to KD value for KRAS) [2] | NRAS/KRAS (ratio of KD value with respect to NRAS to KD value with respect to KRAS) [1] | HRAS/KRAS (ratio of KD value with respect to HRAS to KD value with respect to KRAS) [2]
5 | 0.36 nM |  | CCC[C@H]1C(=O)N[C@@H](C2CCCCC2)C(=O)N(C)CC(=O)N(C)[C@H]2C/C=C\CCN(C2=O)[C@@H](Cc2ccc(C(F)(F)F)cc2)C(=O)N(C)CC(=O)N[C@@H](CCc2ccc(C(F)(F)F)c(Cl)c2)C(=O)N2C[C@H](OCC)C[C@H]2C(=O)NC2(CC(C)(C)C2)C(=O)N(C)[C@@H](C2CCCC2)C(=O)N(C)[C@H](C(=O)N(C)C)CC(=O)N1C [PP2996] | AA (a compound having 20 or more is denoted as AA) | A (a compound having 10 or more and less than 20 is denoted as A) |  | 
6 | 0.39 nM |  | CCO[C@@H]1C[C@H]2C(=O)NC3(CC(C)(C)C3)C(=O)N(C)[C@@H](C(CC)CC)C(=O)N(C)[C@H](C(=O)N3CCCC3)CC(=O)N(C)[C@@H](C)C(=O)N[C@@H]([C@@H](C)CC)C(=O)N(C)CC(=O)N(C)[C@H]3C/C=C\CCN(C3=O)[C@@H](Cc3ccc(C)cc3)C(=O)N(C)CC(=O)N[C@@H](CCc3cc(F)c(C(F)(F)F)c(F)c3)C(=O)N2C1 [PP2145] | A (a compound having 10 or more and less than 20 is denoted as A) | A (a compound having 10 or more and less than 20 is denoted as A) |  | 

From patent publication US20240158446A1, “CYCLIC COMPOUND HAVING SELECTIVE INHIBITORY ACTION ON KRAS OVER HRAS AND NRAS” (CHUGAI SEIYAKU KABUSHIKI KAISHA, priority 2021, published 2024)
